Entries after “also recorded” stand apart in the source; their conditions may differ.
Key:
hMSCs in pellet culture = test: Induction of hypertrophy in hMSC pellet culture by sequential treatment with two media; format: cell-based, human; details: for inducing hypertrophy: other preliminary experiments
[1] = tested on: Human bone marrow-derived mesenchymal stem cells; test: Chondrogenic differentiation of MSC pellets with TGF-β1 or TGF-β3 (toluidine blue, collagen and COMP immunostaining); format: cell-based; details: 10 ng/ml
Protocol: Human bone marrow-derived mesenchymal stem cells were cultured under standard conditions in the presence of 10% FBS until confluent. The cells were trypsinized, washed twice with chondrogenic medium, and resuspended at a density of 200,000 cells/ml in 15 ml polypropylene tubes in chondrogenic medium containing either 10 ng/ml TGF-01, TGF-β3 or neither of these. […] Frozen sections (8 μn) were stained with Toluidine blue. They were also stained for the following using standard immunocytochemistry protocols: collagen type 11, collagen type 1, and cartilage oligomeric matrix protein (COMP).

[2] = tested on: human mesenchymal stem cells (hMSCs); test: hMSC pellet culture in chondrogenic medium with low or high sugar concentration (pellet size, type II collagen immunostaining, toluidine blue); format: cell-based; details: low-glucose medium supplemented with 3.5 g/l fructose; compared with high-glucose medium (4.5 g/l glucose)
Protocol: The hMSCs in pellet culture that are undergoing chondrogenic differentiation express the extracellular matrix proteoglycans mentioned above. […] In FIG. 1, the increase in the size of the cell pellet is evident when the medium contains “high glucose”. Changes in the size of hMSC pellets reflect the extent of synthesis of extracellular matrix components. Each pellet was formed by transferring an aliquot of 200,000 cells into ½ ml chondrogenic medium with 1 g/l (5.5 mM) glucose (left) or 4.5 g/l (25 mM) glucose ( right). The chondrogenic medium consisted of DMEM with the stated concentration of glucose and the following supplements: 100 nM dexamethasone, 10 ng/ml Transforming Growth Factor)β, 1 mM sodium pyruvate, 5 μg/ml ascorbic acid-2-phosphate, and 40 μg/ml proline. A 1:99 dilution of “ITS+” supplied 6.25 μg/ml bovine insulin, 6.25 μg/ml transferrin, […], 5.33 μg/ml linoleic acid, and 1.25 mg/ml bovine serum albumin. Final concentrations of 100 U/ml penicillin, 100 μg/ml streptomycin, and 250 ng/ml amphotericin B were supplied by a 1:99 dilution of a concentrated antibiotic solution. The cells and medium were placed into a 15 ml polypropylene conical-bottom centrifuge tube, and gently centrifuged (500× g for 5 min.), after which the tubes with loosened caps were placed in a humidified 5% CO2 incubator at 37 C. […]

[3] = no TGF-β3, 50 nM thyroxine, 20 mM β-glycerol phosphate, 10^−9 M dexamethasone, compared to standard chondrogenic medium for 28 days

N[C@@H](Cc1cc(I)c(Oc2ccc(O)c(I)c2)c(I)c1)C(=O)O [T3]
inducing hypertrophy (hMSCs in pellet culture): effective

N[C@@H](Cc1cc(I)c(Oc2cc(I)c(O)c(I)c2)c(I)c1)C(=O)O [thyroxine]
hypertrophy (hMSCs in pellet culture; no TGF-β3, 50 nM thyroxine combined with 20 mM β-glycerol phosphate and 10^−9 M dexamethasone, from day 14 to day 28): hypertrophic differentiation of hMSCs was the predominant pathway; also recorded: more prominent | deposition of type X collagen (antibody X53) (hMSCs in pellet culture; [3]): irregular but pronounced increase | staining for type II and type IX collagens (hMSCs in pellet culture; [3]): intense staining | inducing hypertrophy (hMSCs in pellet culture): effective | hypertrophic effect (hMSCs in pellet culture; withdrawing TGF-β3 and adding 50 nM thyroxine after two weeks of chondrogenic differentiation, two additional weeks of culture): pronounced hypertrophic effect

TGF-β1: member of the transforming growth factor-β superfamily, known promoter of cartilage formation
type II collagen expression ([1]; 14 days): localized expression of type II collagen | type II collagen staining ([1]; 21 days in culture): staining throughout the pellet except for the perimeter | type II collagen expression ([1]; after 8 days in pellet culture): no expression of type II collagen

O=C(CO)[C@@H](O)[C@H](O)[C@H](O)CO [fructose]
improvement to in vitro chondrogenic differentiation [2]: same improvement

B1: TGF-β3: transforming growth factor beta-3, chondroinductive agent (protein, UniProt P10600 301-412, looked up)
Transforming growth factor …: ALDTNYCFRNLEENCCVRPLYIDFRQDLGWKWVHEPKGYYANFCSGPCPYLRSADTTHSTVLGLYNTLNPEASASPCCVPQDLEPLTILYYVGRTPKVEQLSNMVVKSCKCS
cell morphology (hypertrophic cells) ([1]; 14 days): A large proportion of the cells were hypertrophic | pellet size ([1]; 14 days): larger in size | type II collagen expression ([1]; 14 days): expression of type II collagen throughout, except for a central area | COMP staining ([1]; 21 days in culture): reduced pericellular staining and increased interterritorial staining | type II collagen staining ([1]; 21 days in culture): very strong staining | type II collagen expression ([1]; after 8 days in pellet culture): some cells-ex fessed type II collagen | effect on chondrogenic differentiation of human MSCs in vitro ([1]; up to 21 days): dramatic effect; also recorded: more pronounced

From US20030026786A1, “CHONDROGENIC DIFFERENTIATION OF HUMAN MESENCHYMAL STEM CELLS” (priority 1999, published 2003)
